Test results reported in BindingDB's records for doi:10.1016/j.bmcl.2023.129387 (The University of Queensland, 2023).

Molecular target: Metallo-beta-lactamase type 2 (Klebsiella pneumoniae, UniProt C7C422)
Experiment: Competitive inhibition of NDM-1 (unknown origin) using penicillin G as substrate by Michaelis-Menten equation based kinetic analysis

Chain of Metallo-beta-lactamase type 2 (C7C422 whole entry): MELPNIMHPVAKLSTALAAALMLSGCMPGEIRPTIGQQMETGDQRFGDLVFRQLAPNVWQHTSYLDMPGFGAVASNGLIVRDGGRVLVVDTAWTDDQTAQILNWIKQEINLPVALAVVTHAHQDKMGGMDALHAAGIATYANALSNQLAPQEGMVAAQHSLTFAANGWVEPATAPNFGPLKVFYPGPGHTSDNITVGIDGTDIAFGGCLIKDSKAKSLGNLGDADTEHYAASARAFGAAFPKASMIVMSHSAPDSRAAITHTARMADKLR

Compound | Ki [µM]
N#Cc1c(-c2ccccc2)c(-c2ccccc2)n(Cc2ccccc2)c1NC(=O)c1ccccc1 | 9
N#Cc1c(-c2ccccc2)c(-c2ccccc2)n(Cc2ccccc2)c1/N=C/c1ccccc1 | 3.2

More lines, in order of falling Ki, values ahead:

Ki [µM] | Compound
34 | COC(=O)c1ccc(/C=N/c2c(C#N)c(-c3ccccc3)c(-c3ccccc3)n2Cc2ccccc2)cc1
1.7 | N#Cc1c(-c2ccccc2)c(-c2ccccc2)n(Cc2ccccc2)c1/N=C/c1cccs1
1.3 | N#Cc1c(-c2ccccc2)c(-c2ccccc2)n(Cc2ccccc2)c1/N=C/c1ccc(O)cc1
